Experimental data: ChEMBL document CHEMBL4308877, “Thiazole, thio and semicarbazone derivatives against tropical infective diseases: Chagas disease, human African trypanosomiasis (HAT), leishmaniasis, and malaria” (Eur J Med Chem, 2019)
Converted amounts (≈) assume the structure as drawn.

How the values were obtained:
[1] = Selectivity index, ratio of cytotoxic activity for African green monkey Vero cells to IC50 for amastigote stage of Trypanosoma cruzi Tulahuen CL2; format: toxicity
Trypanosoma cruzi [2] = test: Anti-parasitic activity against amastigote stage of Trypanosoma cruzi Tulahuen CL2 infected in human MRC5 cells after 7 days by […] reporter gene assay; format: functional, organism-based; settings: Tulahuen CL2, MRC5, 168 h
Leishmania amazonensis [3] = test: Anti-parasitic activity against amastigote stage of Leishmania amazonensis WHOM/00 LTB 0016 infected in mouse macrophages after 24 hrs; format: functional, organism-based; settings: WHOM/00 LTB 0016, 24 h
[4] = Selectivity index, ratio of CC50 for mouse macrophages to IC50 for promastigote stage of Leishmania amazonensis WHOM/00 LTB 0016; format: toxicity; settings: read-out: Ratio CC50/IC50
Leishmania amazonensis [5] = test: Anti-parasitic activity against promastigote stage of Leishmania amazonensis WHOM/00 LTB 0016 after 96 hrs; format: functional, organism-based; settings: WHOM/00 LTB 0016, 96 h
[6] = Selectivity index, ratio of CC50 for mouse macrophages to IC50 for amastigote stage of Leishmania amazonensis WHOM/00 LTB 0016; format: toxicity; settings: read-out: Ratio CC50/IC50
A549 = test: Cytotoxicity against human A549 cells assessed as reduction in cell viability after 24 hrs by MTT assay; format: functional, cell-based; settings: A549, 24 h
C6 = test: Cytotoxicity against rat C6 cells assessed as reduction in cell viability after 24 hrs by MTT assay; format: functional, cell-based; settings: C6, 24 h
Trypanosoma cruzi [7] = test: Anti-parasitic activity against amastigote stage of Trypanosoma cruzi Y infected in monkey LLC-MK2 cells after 96 hrs; format: functional, organism-based; settings: LLC-MK2, 96 h
Trypanosoma cruzi [8] = test: Anti-parasitic activity against trypomastigote stage of Trypanosoma cruzi Y infected in monkey LLC-MK2 cells after 24 hrs; format: functional, organism-based; settings: LLC-MK2, 24 h
[9] = tested on: Trypanosoma brucei brucei; test: Anti-parasitic activity against trypomastigote stage of Trypanosoma brucei brucei; format: functional, organism-based
[10] = Selectivity index, ratio of IC50 for human WI38 cells to IC50 for trypomastigote stage of Trypanosoma brucei brucei; format: toxicity; settings: read-out: Ratio IC50
[11] = Selectivity index, ratio of IC50 for human SK-N-SH cells to IC50 for wild type Trypanosoma brucei; format: toxicity; settings: read-out: Ratio IC50
Trypanosoma brucei [12] = test: Anti-parasitic activity against wild type Trypanosoma brucei; format: functional, organism-based
Trypanosoma brucei [13] = test: Anti-parasitic activity against type 1 nitroreductase over-expressing Trypanosoma brucei; format: functional, organism-based
[14] = Selectivity index, ratio of IC50 for human THP1 cells to IC50 for Trypanosoma brucei overexpressing the type 1 nitroreductase; format: toxicity; settings: read-out: Ratio IC50
[15] = target: Cruzipain (Trypanosoma cruzi) (UniProt P25779); test: Inhibition of recombinant Trypanosoma cruzi CL epimastigotes form cruzain at 100 uM using Z-FR-AMC as substrate preincubated for 10 mins followed by substrate addition measured after 5 mins by fluorimetric analysis relative to control
Chain of Cruzipain (Trypanosoma cruzi) (P25779 123-467 limits assumed): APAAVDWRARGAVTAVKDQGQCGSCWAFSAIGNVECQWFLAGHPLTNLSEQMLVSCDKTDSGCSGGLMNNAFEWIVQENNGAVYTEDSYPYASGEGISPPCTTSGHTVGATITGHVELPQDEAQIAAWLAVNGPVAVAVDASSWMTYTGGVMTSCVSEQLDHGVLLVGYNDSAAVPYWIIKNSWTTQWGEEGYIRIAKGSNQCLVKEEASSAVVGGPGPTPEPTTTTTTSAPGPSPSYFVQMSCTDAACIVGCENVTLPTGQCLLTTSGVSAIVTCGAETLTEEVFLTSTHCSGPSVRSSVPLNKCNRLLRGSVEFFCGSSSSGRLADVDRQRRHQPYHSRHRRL

[16] = Selectivity index, ratio of LC50 for salina eggs to IC50 for Trypanosoma brucei brucei 427; format: toxicity; settings: Artemia salina (brine shrimp), read-out: Ratio IC50
[17] = tested on: Trypanosoma brucei brucei; test: Anti-parasitic activity against Trypanosoma brucei brucei 427 after 72 hrs by Alamar Blue assay; format: functional, organism-based; settings: Trypanosoma brucei, 427, 72 h
[18] = tested on: Trypanosoma brucei brucei; test: Anti-parasitic activity against Trypanosoma brucei brucei AnTat1.1E; format: functional, organism-based
[19] = Selectivity index, ratio of IC50 for HEK293T cells to IC50 for Trypanosoma brucei brucei AnTat1.1E; format: toxicity; settings: human
[20] = Selectivity index, ratio of EC50 for human U-937 cells to IC50 for amastigote stage of EGFP-fused Leishmania panamensis MHOM/CO/87/UA140; format: toxicity; settings: read-out: Selectivity Index
Leishmania panamensis = test: Anti-parasitic activity against amastigote stage of EGFP-fused Leishmania panamensis MHOM/CO/87/UA140 infected in human U-937 cells after 72 hrs by flow cytometric analysis; format: functional, organism-based; settings: MHOM/CO/87/UA140, U-937, 72 h
[21] = Selectivity index, ratio of cytotoxic activity for monkey LLC-MK2 cells to IC50 for trypomastigote stage of Trypanosoma cruzi Y; format: toxicity

CCOc1cccc2sc(N(Cc3cccnc3)C(=O)C3CCCCC3)nc12
selectivity ratio [1]: > 200 | IC50 (Trypanosoma cruzi [2]): 0.16 µM

NC(=S)N/N=C(/COc1ccccc1)c1ccccc1
IC50 (Leishmania amazonensis [3]): 33 µM | selectivity ratio [4]: 71.1 | IC50 (Leishmania amazonensis [5]): 6 µM | selectivity ratio [6]: 4.94

Cc1c(CO)c(CO)c2n1[C@@H](c1ccccc1)SC2
IC50 (A549): 12 µg/mL (≈ 43.6 µM) | IC50 (C6): 3.83 µg/mL (≈ 13.9 µM)

N/C(S)=N/N=C/c1ccc([N+](=O)[O-])cc1
IC50 (Trypanosoma cruzi [7]): 3.23 µM | EC50 (Trypanosoma cruzi [8]): 1.43 µM

CC1=C/C(=N/NC(=S)Nc2ccccc2)C(C(C)C)CC1 (stereo not drawn)
IC50 [9]: 10.9 µM | selectivity ratio [10]: 12.3

CCCC(=O)Nc1ncc([N+](=O)[O-])s1
selectivity ratio [11]: > 15 | IC50 (Trypanosoma brucei [12]): 6.47 µM | IC50 (Trypanosoma brucei [13]): 0.64 µM | selectivity ratio [14]: > 156

CC(C)c1ccc(/C=N/NC(N)=S)cc1
inhibition [15]: 70%

Nc1ccccc1/C(=N\NC(=S)Nc1ccccc1)c1ccccc1
selectivity ratio [16]: 15 | IC50 [17]: 2.83 µM

CCOC(=O)c1ccc(-n2sc3ccccc3c2=O)cc1
IC50 [18]: 0.937 µM | selectivity ratio [19]: > 267

COc1ccc(/C(COc2ccccc2)=N\NC(N)=S)cc1
IC50 (Leishmania amazonensis [3]): 34.3 µM | selectivity ratio [4]: 44.4 | IC50 (Leishmania amazonensis [5]): 3.5 µM | selectivity ratio [6]: 4.5

NC(=O)N/N=C1\CC(c2ccccc2)Sc2ccccc21 (stereo not drawn)
selectivity ratio [20]: 18.6 | EC50 (Leishmania panamensis): 5.4 µM

CCC1S/C(=N/N=C(/COc2ccccc2)c2ccc(Br)cc2)NC1=O (stereo not drawn)
selectivity ratio [21]: > 57.9 | IC50 (Trypanosoma cruzi [8]): 4 µM

CC(=O)Nc1ncc([N+](=O)[O-])s1 [NITHIAMIDE]
selectivity ratio [11]: > 21 | IC50 (Trypanosoma brucei [12]): 4.67 µM | IC50 (Trypanosoma brucei [13]): 0.58 µM | selectivity ratio [14]: 149
